US20240383852A1, “ANTI-VIRAL COMPOUNDS” (INFEX Therapeutics Limited, priority 2021, published 2024)
Structures can show the parent of a compound that is named as a salt.

Legend:
SARS-CoV-2 PLpro = molecular target: T1, SARS-CoV-2 PLpro (Severe acute respiratory syndrome coronavirus 2, UniProt P0DTD1); test: biochemical; settings: 60 nM papain-like protease, 50 μM Z-RLRGG-AMC, pH 7.5, 37° C.; read-out: SARS-CoV-2 PLpro IC50
T1 construct: containing 60 nM papain-like protease

[1] = tested on: human Hep G2 cells (ATCC HB-8065); test: Cytotoxicity in Hep G2 cells (CellTiter-Glo); assay type: cell-based; settings: Hep G2 cells, 100 μM test article, 24-hour exposure

Structure (SMILES) | IC50 (SARS-CoV-2 PLpro) [µM] | % Cell Viability [1] [%]
Cc1ccc(N2CCN(C)CC2)cc1C(=O)N[C@H](C)c1cccc(-c2ccc(C3CCNCC3)cc2)c1 [Example 77, 2-Methyl-5-(4-methylpiperazin-1-yl)-N-[(1R)-1-[3-[4-(4-piperidyl)phenyl]phenyl]ethyl]benzamide] | < 2 | 1.0
Cc1ccc(N2CC3(CN(CCC(=O)O)C3)C2)cc1C(=O)N[C@H](C)c1cccc2ccccc12 [Example 168, 3-[2-[4-Methyl-3-[[(1R)-1-(1-naphthyl)ethyl]carbamoyl]phenyl]-2,6-diazaspiro[3.3]heptan-6-yl]propanoic acid] | < 5 | 111.2
Cc1ccc(N2CCN(C)CC2)cc1C(=O)N[C@H](C)c1cccc(C(=O)NC[C@@H](O)CO)c1 [Example 308, N-[(1R)-1-[3-[[(2R)-2,3-Dihydroxypropyl]carbamoyl]phenyl]ethyl]-2-methyl-5-(4-methylpiperazin-1-yl)benzamide hydrochloride salt] | < 10 | 126.8
Cc1ccc(N2CCN(C)CC2)cc1C(=O)N[C@H](C)c1cc(F)cc(-c2cnn(C)c2)c1 [Example 229, N-[(1R)-1-[3-Fluoro-5-(1-methylpyrazol-4-yl)phenyl]ethyl]-2-methyl-5-(4-methylpiperazin-1-yl)benzamide] | < 2 | 66.7
COc1ccc([C@@H](C)NC(=O)c2cc(N3CCN(C)CC3)ccc2C)cc1C1CCNCC1 [Example 237, N-[(1R)-1-[4-Methoxy-3-(4-piperidyl)phenyl]ethyl]-2-methyl-5-(4-methylpiperazin-1-yl)benzamide] | < 5 | 87.9
Cc1ccc(N2CC[C@@H](N3CCCCC3)C2)cc1C(=O)N[C@H](C)c1cccc2ccccc12 [Example 129, 2-Methyl-N-[(1R)-1-(1-naphthyl)ethyl]-5-[(3R)-3-(1-piperidyl)pyrrolidin-1-yl]benzamide] | < 5 | 95.5
COc1cc(-c2ccnn2C)cc([C@@H](C)NC(=O)c2cc(N3C[C@H]4C[C@@H]3CN4C)ccc2C)c1 [Example 248, N-[(1R)-1-[3-Methoxy-5-(2-methylpyrazol-3-yl)phenyl]ethyl]-2-methyl-5-[(1R,4R)-5-methyl-2,5-diazabicyclo[2.2.1]heptan-2-yl]benzamide] | < 2 | 55.3
C[C@@H](NC(=O)c1cccc(N2CCNCC2)c1)c1cccc2ccccc12 [Example 158, N-[(1R)-1-(1-Naphthyl)ethyl]-3-piperazin-1-yl-benzamide Hydrochloride Salt] | < 5 | 0.8
COc1cc(OC)c([C@@H](C)NC(=O)c2cc(N3CCN(C)CC3)ccc2C)cc1Br [Example 202, N-[(1R)-1-(5-Bromo-2,4-dimethoxy-phenyl)ethyl]-2-methyl-5-(4-methylpiperazin-1-yl)benzamide] | < 5 | 72.5
Cc1ccc(N2CCCN(S(N)(=O)=O)CC2)cc1C(=O)N[C@H](C)c1cccc2ccccc12 [Example 178, 2-methyl-N-[(1R)-1-(1-naphthyl)ethyl]-5-(4-sulfamoyl-1,4-diazepan-1-yl)benzamide] | < 20 | 77.2
Cc1ccc(N2CCN(C)CC2)cc1C(=O)N[C@H](C)c1cccc(-c2cccc(C(=O)N(C)C)c2)c1 [Example 47, N-[(1R)-1-[3-[3-(Dimethylcarbamoyl)phenyl]phenyl]ethyl]-2-methyl-5-(4-methylpiperazin-1-yl)benzamide] | < 2 | 54.0
Cc1ccc(N2CCN(C)CC2)cc1C(=O)N[C@H](C)c1ccc(OC(F)(F)F)c(-c2cnn(C)c2)c1 [Example 222, 2-Methyl-5-(4-methylpiperazin-1-yl)-N-[(1R)-1-[3-(1-methylpyrazol-4-yl)-4-(trifluoromethoxy)phenyl]ethyl]benzamide] | < 2 | 7.4
